This experiment has as its system MV-4-11 cells. As to the kind of experiment: Gene expression microarray analysis (Affymetrix PrimeView) and GSEA. Conditions: MV-4-11 cells, 48 hours. More on the design: RFU PODN (11730768_x_at) / Fold change /veh PODN (11730768_x_at) / RFU LINC00158 (11744669_a_at) / Fold change /veh LINC00158 (11744669_a_at) / RFU DUSP10 (11751237_a_at) / Fold change /veh DUSP10 (11751237_a_at) / RFU ID3 (11757404_x_at) / Fold change /veh ID3 (11757404_x_at) / RFU PLEKHG5 (11737974_s_at) / Fold change /veh PLEKHG5 (11737974_s_at) / RFU LRRC4B (11730491_at) / Fold change /veh LRRC4B (11730491_at) / RFU GIMAP4 (11747438_a_at) / Fold change /veh GIMAP4 (11747438_a_at) / RFU KRT8 (11758183_x_at) / Fold change /veh KRT8 (11758183_x_at) / RFU CNN1 (11734310_a_at) / Fold change /veh CNN1 (11734310_a_at) / RFU VPS37D (11726825_at) / Fold change /veh VPS37D (11726825_at) / RFU C10orf10 (11716522_x_at) / Fold change /veh C10orf10 (11716522_x_at) / RFU KIR2DL2 /// KIR2DL4 /// KIR2DL5A /// KIR2DL5B /// KIR2DS1 /// KIR2DS2 /// KIR2DS3 /// KIR2DS4 /// KIR3DL3 /// KIR3DL3 /// KIR3DS1 (11738374_at) / Fold change /veh KIR2DL2 /// KIR2DL4 /// KIR2DL5A /// KIR2DL5B /// KIR2DS1 /// KIR2DS2 /// KIR2DS3 /// KIR2DS4 /// KIR3DL3 /// KIR3DL3 /// KIR3DS1 (11738374_at) / RFU C1QL1 (11718748_at) / Fold change /veh C1QL1 (11718748_at) / RFU TMPRSS4 (11747572_a_at) / Fold change /veh TMPRSS4 (11747572_a_at) / RFU HAMP (11756126_x_at) / Fold change /veh HAMP (11756126_x_at) / RFU RNFT2 (11725882_a_at) / Fold change /veh RNFT2 (11725882_a_at) / RFU NR4A2 (11747474_a_at) / Fold change /veh NR4A2 (11747474_a_at) / RFU ABCC12 (11746883_a_at) / Fold change /veh ABCC12 (11746883_a_at) / RFU TMEM136 (11760407_x_at) / Fold change /veh TMEM136 (11760407_x_at) / RFU CLDN22 /// WWC2 (11732394_at) / Fold change /veh CLDN22 /// WWC2 (11732394_at) / RFU HLA-DPB1 (11760878_x_at) / Fold change /veh HLA-DPB1 (11760878_x_at) / RFU SPINT1 (11716480_a_at) / Fold change /veh SPINT1 (11716480_a_at) / RFU GAP43 (11754022_s_at) / Fold change /veh GAP43 (11754022_s_at) / RFU A4GNT (11735810_at) / Fold change /veh A4GNT (11735810_at) / RFU PRB3 (11715151_x_at) / Fold change /veh PRB3 (11715151_x_at) / RFU TUBB4B (11761932_at) / Fold change /veh TUBB4B (11761932_at) / RFU CAPN14 (11732068_a_at) / Fold change /veh CAPN14 (11732068_a_at) / RFU TMCC2 (11721928_a_at) / Fold change /veh TMCC2 (11721928_a_at) / RFU IRGQ (11745062_a_at) / Fold change /veh IRGQ (11745062_a_at) / RFU FAM174B (11720279_a_at) / Fold change /veh FAM174B (11720279_a_at) / RFU TMPRSS4 (11748680_a_at) / Fold change /veh TMPRSS4 (11748680_a_at) / RFU FAM212B (11763350_a_at) / Fold change /veh FAM212B (11763350_a_at) / RFU PLEKHG5 (11743358_a_at) / Fold change /veh PLEKHG5 (11743358_a_at) / RFU ZSCAN30 (11745921_a_at) / Fold change /veh ZSCAN30 (11745921_a_at) / RFU CMKLR1 (11741424_a_at) / Fold change /veh CMKLR1 (11741424_a_at) / RFU LOC101060620 /// MAPK8IP1 (11723275_at) / Fold change /veh LOC101060620 /// MAPK8IP1 (11723275_at) / RFU SPTSSB (11747773_x_at) / Fold change /veh SPTSSB (11747773_x_at) / RFU PRSS12 (11739890_at) / Fold change /veh PRSS12 (11739890_at) / RFU BIN1 (11741810_x_at) / Fold change /veh BIN1 (11741810_x_at) / RFU WNT11 (11732464_a_at) / Fold change /veh WNT11 (11732464_a_at) / RFU C10orf10 (11716521_a_at) / Fold change /veh C10orf10 (11716521_a_at) / RFU C5orf56 (11738089_at) / Fold change /veh C5orf56 (11738089_at) / RFU CYB561 (11721691_x_at) / Fold change /veh CYB561 (11721691_x_at) / RFU ANKRD19P (11752326_a_at) / Fold change /veh ANKRD19P (11752326_a_at) / RFU OR2T12 /// OR2T33 /// OR2T8 (11738714_s_at) / Fold change /veh OR2T12 /// OR2T33 /// OR2T8 (11738714_s_at) / RFU VCAN (11748164_a_at) / Fold change /veh VCAN (11748164_a_at) / RFU JSRP1 (11732532_at) / Fold change /veh JSRP1 (11732532_at) / RFU KRTAP10-11 (11738290_x_at) / Fold change /veh KRTAP10-11 (11738290_x_at) / RFU MYO3A (11730013_a_at) / Fold change /veh MYO3A (11730013_a_at) / RFU EBF3 (11725865_a_at) / Fold change /veh EBF3 (11725865_a_at) / RFU CAMK2N1 (11719241_x_at) / Fold change /veh CAMK2N1 (11719241_x_at) / RFU C5orf56 (11738088_a_at) / Fold change /veh C5orf56 (11738088_a_at) / RFU OLFML3 (11715873_a_at) / Fold change /veh OLFML3 (11715873_a_at) / RFU LOC100653217 /// NTM (11731650_a_at) / Fold change /veh LOC100653217 /// NTM (11731650_a_at) / RFU MAPK11 (11762145_a_at) / Fold change /veh MAPK11 (11762145_a_at) / RFU FIZ1 (11724087_x_at) / Fold change /veh FIZ1 (11724087_x_at) / RFU OASL (11726364_x_at) / Fold change /veh OASL (11726364_x_at) / RFU SOX15 (11748057_x_at) / Fold change /veh SOX15 (11748057_x_at) / RFU CD79A (11719716_a_at) / Fold change /veh CD79A (11719716_a_at) / RFU HIST1H1D (11736915_at) / Fold change /veh HIST1H1D (11736915_at) / RFU CASKIN2 (11723855_a_at) / Fold change /veh CASKIN2 (11723855_a_at) / RFU LOC730098 (11760151_x_at) / Fold change /veh LOC730098 (11760151_x_at) / RFU OR4N2 (11742367_at) / Fold change /veh OR4N2 (11742367_at) / RFU PRRT2 (11749266_a_at) / Fold change /veh PRRT2 (11749266_a_at) / RFU SNX32 (11753110_a_at) / Fold change /veh SNX32 (11753110_a_at) / RFU CDHR5 (11726645_a_at) / Fold change /veh CDHR5 (11726645_a_at) / RFU RCAN1 (11760418_a_at) / Fold change /veh RCAN1 (11760418_a_at) / RFU FAM167A (11723789_a_at) / Fold change /veh FAM167A (11723789_a_at) / RFU FAM26E (11764081_at) / Fold change /veh FAM26E (11764081_at) / RFU ISYNA1 (11749810_s_at) / Fold change /veh ISYNA1 (11749810_s_at) / RFU ACY1 (11761880_at) / Fold change /veh ACY1 (11761880_at) / RFU 11764098_at / Fold change /veh 11764098_at / RFU SAMD14 (11745864_x_at) / Fold change /veh SAMD14 (11745864_x_at) / RFU NPB (11741838_a_at) / Fold change /veh NPB (11741838_a_at) / RFU TMPRSS6 (11731388_a_at) / Fold change /veh TMPRSS6 (11731388_a_at) / RFU KRTAP10-2 (11738614_at) / Fold change /veh KRTAP10-2 (11738614_at) / RFU ARHGAP8 /// PRR5-ARHGAP8 (11727945_x_at) / Fold change /veh ARHGAP8 /// PRR5-ARHGAP8 (11727945_x_at) / RFU KRTAP5-7 /// NADSYN1 (11734609_at) / Fold change /veh KRTAP5-7 /// NADSYN1 (11734609_at) / RFU RASL12 (11751679_a_at) / Fold change /veh RASL12 (11751679_a_at) / RFU CDKN2B (11736163_a_at) / Fold change /veh CDKN2B (11736163_a_at) / RFU PRF1 (11729649_at) / Fold change /veh PRF1 (11729649_at) / RFU, ZNF638 /// ZNF638-IT1 / Fold change vs veh, ZNF638 /// ZNF638-IT1 / RFU, PANK3 / Fold change vs veh, PANK3 / RFU, SH3YL1 / Fold change vs veh, SH3YL1 / RFU, ZEB2 / Fold change vs veh, ZEB2 / RFU, NRIP1 / Fold change vs veh, NRIP1 / RFU, PTTG1IP / Fold change vs veh, PTTG1IP / RFU, CAPN2 / Fold change vs veh, CAPN2 / RFU, MED14 / Fold change vs veh, MED14 / RFU, SNORA58 / Fold change vs veh, SNORA58 / RFU, C1orf63 / Fold change vs veh, C1orf63 / RFU, LRRFIP1 / Fold change vs veh, LRRFIP1 / RFU, NDUFAF7 / Fold change vs veh, NDUFAF7 / RFU, SLC12A2 / Fold change vs veh, SLC12A2 / RFU, IBTK / Fold change vs veh, IBTK / RFU, ESF1 / Fold change vs veh, ESF1 / Fold change vs veh, TMEM50B / RFU, TAOK1 / Fold change vs veh, TAOK1 / RFU, ACBD3 / Fold change vs veh, ACBD3 / RFU, TMA16 / Fold change vs veh, TMA16 / RFU, RWDD3 / Fold change vs veh, RWDD3 / RFU, BCAT1 / Fold change vs veh, BCAT1 / RFU, EDEM3 / Fold change vs veh, EDEM3 / RFU, TMEM33 / Fold change vs veh, TMEM33 / RFU, WDR75 / Fold change vs veh, WDR75 / RFU, AHCTF1 / Fold change vs veh, AHCTF1 / RFU, TFRC / Fold change vs veh, TFRC / RFU, ZDHHC17 / Fold change vs veh, ZDHHC17 / RFU, NOM1 / Fold change vs veh, NOM1 / RFU, ARL8B / Fold change vs veh, ARL8B / RFU, ZBTB11 / Fold change vs veh, ZBTB11 / RFU, TAMM41 / Fold change vs veh, TAMM41 / RFU, KIAA1704 /// LOC100996395 / Fold change vs veh, KIAA1704 /// LOC100996395 / RFU, ING1 / Fold change vs veh, ING1 / RFU, TRMT61B / Fold change vs veh, TRMT61B / RFU, FUBP3 / Fold change vs veh, FUBP3 / RFU, TP53 / Fold change vs veh, TP53 / RFU, TNKS2 / Fold change vs veh, TNKS2 / RFU, ZFP14 / Fold change vs veh, ZFP14 / RFU, ACTR2 / Fold change vs veh, ACTR2 / RFU, PPP3R1 / Fold change vs veh, PPP3R1 / RFU, PIK3R1 / Fold change vs veh, PIK3R1 / RFU, HNRNPA1 / Fold change vs veh, HNRNPA1 / RFU, RNF170 / Fold change vs veh, RNF170 / RFU, ZNF28 / Fold change vs veh, ZNF28 / RFU, RNGTT / Fold change vs veh, RNGTT / RFU, OGT / Fold change vs veh, OGT / RFU, BRD1 / Fold change vs veh, BRD1 / RFU, MARS / Fold change vs veh, MARS / RFU, ZNF655 / Fold change vs veh, ZNF655 / RFU, FAHD1 / Fold change vs veh, FAHD1 / RFU, BDP1 / Fold change vs veh, BDP1 / RFU, LRRCC1 / Fold change vs veh, LRRCC1 / RFU, ARID1A / Fold change vs veh, ARID1A / RFU, ZNF146 / Fold change vs veh, ZNF146 / RFU, ZNF330 / Fold change vs veh, ZNF330 / RFU, GPN3 / Fold change vs veh, GPN3 / RFU, C9orf123 / Fold change vs veh, C9orf123 / RFU, N4BP2L2 / Fold change vs veh, N4BP2L2 / RFU, ARFIP1 / Fold change vs veh, ARFIP1 / RFU, FAM179B / Fold change vs veh, FAM179B / RFU, BCL10 / Fold change vs veh, BCL10 / RFU, UHRF1BP1L / Fold change vs veh, UHRF1BP1L / RFU, BET1 / Fold change vs veh, BET1 / RFU, CNOT2 / Fold change vs veh, CNOT2 / RFU, ZNF268 / Fold change vs veh, ZNF268 / Fold change vs veh, ZNF507 / RFU, DGCR2 / Fold change vs veh, DGCR2 / RFU, WDSUB1 / Fold change vs veh, WDSUB1 / Fold change vs veh, HSP90B1 /// MIR3652 / RFU, ADSS / Fold change vs veh, ADSS / RFU, GK / Fold change vs veh, GK / RFU, ZNF148 / Fold change vs veh, ZNF148 / RFU, TAF9 / Fold change vs veh, TAF9 / RFU, SLC1A5 / Fold change vs veh, SLC1A5 / RFU, SLMO2 / Fold change vs veh, SLMO2 / RFU, ABCC4 / Fold change vs veh, ABCC4 / RFU, LOC101060439 /// RAP1B / Fold change vs veh, LOC101060439 /// RAP1B / RFU, RFX7 / Fold change vs veh, RFX7 / RFU, GTPBP10 / Fold change vs veh, GTPBP10 / RFU, CNEP1R1 / Fold change vs veh, CNEP1R1 / RFU, BIVM-ERCC5 /// ERCC5 / Fold change vs veh, BIVM-ERCC5 /// ERCC5 / RFU, ILF3 / Fold change vs veh, ILF3 / RFU 11762660_at / Fold change /veh 11762660_at / RFU VCAN (11757783_s_at) / Fold change /veh VCAN (11757783_s_at) / RFU DDX43 (11728927_at) / Fold change /veh DDX43 (11728927_at) / RFU KRT8 (11758188_x_at) / Fold change /veh KRT8 (11758188_x_at) / RFU NKD1 (11759106_at) / Fold change /veh NKD1 (11759106_at) / RFU SRD5A1 (11742802_a_at) / Fold change /veh SRD5A1 (11742802_a_at) / RFU TPSAB1 /// TPSB2 (11721975_s_at) / Fold change /veh TPSAB1 /// TPSB2 (11721975_s_at) / RFU GSTM3 (11746129_a_at) / Fold change /veh GSTM3 (11746129_a_at) / RFU IL23R (11737362_x_at) / Fold change /veh IL23R (11737362_x_at) / RFU TMEM51 (11727254_a_at) / Fold change /veh TMEM51 (11727254_a_at) / RFU PIWIL2 (11732686_x_at) / Fold change /veh PIWIL2 (11732686_x_at) / RFU ORM1 (11744905_x_at) / Fold change /veh ORM1 (11744905_x_at) / RFU CCDC152 (11743942_at) / Fold change /veh CCDC152 (11743942_at) / RFU ECM1 (11717891_a_at) / Fold change /veh ECM1 (11717891_a_at) / RFU IL23R (11748794_a_at) / Fold change /veh IL23R (11748794_a_at) / RFU TNFAIP8L3 (11732012_x_at) / Fold change /veh TNFAIP8L3 (11732012_x_at) / RFU MBOAT4 (11741988_at) / Fold change /veh MBOAT4 (11741988_at) / RFU 11764193_at / Fold change /veh 11764193_at / RFU TMEM53 (11763286_at) / Fold change /veh TMEM53 (11763286_at) / RFU MAGEB2 (11727129_at) / Fold change /veh MAGEB2 (11727129_at) / RFU TMEM200A (11744735_a_at) / Fold change /veh TMEM200A (11744735_a_at) / RFU CCDC152 (11751479_a_at) / Fold change /veh CCDC152 (11751479_a_at) / RFU FAM211A (11726209_a_at) / Fold change /veh FAM211A (11726209_a_at) / RFU RGS16 (11746705_a_at) / Fold change /veh RGS16 (11746705_a_at) / RFU VCAN (11755009_s_at) / Fold change /veh VCAN (11755009_s_at) / RFU RHOB (11743442_s_at) / Fold change /veh RHOB (11743442_s_at) / RFU RGS16 (11720943_a_at) / Fold change /veh RGS16 (11720943_a_at) / RFU RGS16 (11720944_at) / Fold change /veh RGS16 (11720944_at) / RFU, VPS4B / Fold change vs veh, VPS4B / RFU, CREB1 / Fold change vs veh, CREB1 / RFU, DNAJC13 / Fold change vs veh, DNAJC13 / RFU, GNAQ / Fold change vs veh, GNAQ / RFU, CDK5R1 / Fold change vs veh, CDK5R1 / RFU, ZRANB3 / Fold change vs veh, ZRANB3 / RFU, CUL4A / Fold change vs veh, CUL4A / RFU, CCNY / Fold change vs veh, CCNY / RFU, UFL1 / Fold change vs veh, UFL1 / RFU, COG3 / Fold change vs veh, COG3 / RFU, DIAPH2 / Fold change vs veh, DIAPH2 / RFU, SKA2 / Fold change vs veh, SKA2 / RFU, AFF3 / Fold change vs veh, AFF3 / RFU, LMF1 / Fold change vs veh, LMF1 / RFU, IPO11 / Fold change vs veh, IPO11 / RFU, DFFB / Fold change vs veh, DFFB / RFU, FOXP1 / Fold change vs veh, FOXP1 / RFU, CARD8 / Fold change vs veh, CARD8 / RFU, STRN3 / Fold change vs veh, STRN3 / RFU, ADK / Fold change vs veh, ADK / RFU, RASSF2 / Fold change vs veh, RASSF2 / RFU, WIPF1 / Fold change vs veh, WIPF1 / RFU, LARP1B / Fold change vs veh, LARP1B / RFU, RASA1 / Fold change vs veh, RASA1 / RFU, RB1 / Fold change vs veh, RB1 / RFU, PPFIA1 / Fold change vs veh, PPFIA1 / RFU, MAT2A / Fold change vs veh, MAT2A / RFU, CCT5 / Fold change vs veh, CCT5 / RFU, WDR92 / Fold change vs veh, WDR92 / RFU, CUX1 / Fold change vs veh, CUX1 / RFU, TTC7A / Fold change vs veh, TTC7A / RFU, TMEM135 / Fold change vs veh, TMEM135 / RFU, DEPTOR / Fold change vs veh, DEPTOR / RFU, CPM / Fold change vs veh, CPM / RFU, DNAJB6 / Fold change vs veh, DNAJB6 / RFU, CACNA2D3 / Fold change vs veh, CACNA2D3 / RFU, DTX4 / Fold change vs veh, DTX4 / RFU, TFCP2 / Fold change vs veh, TFCP2 / RFU, GMCL1 /// GMCL1P1 / Fold change vs veh, GMCL1 /// GMCL1P1 / RFU, AEBP2 / Fold change vs veh, AEBP2 / RFU, SNHG1 /// SNORD22 /// SNORD25 /// SNORD26 /// SNORD27 /// SNORD28 /// SNORD29 /// SNORD31 / Fold change vs veh, SNHG1 /// SNORD22 /// SNORD25 /// SNORD26 /// SNORD27 /// SNORD28 /// SNORD29 /// SNORD31 / Fold change (Aza/veh), C12orf56 (ProbeSet 11735607_a_at) / Fold change (ACY-1035/veh), C12orf56 (ProbeSet 11735607_a_at) / Fold change (Aza/veh), FGFR1OP (ProbeSet 11751329_s_at) / Fold change (ACY-1035/veh), FGFR1OP (ProbeSet 11751329_s_at) / Fold change (Aza/veh), VPS36 (ProbeSet 11739960_a_at) / Fold change (ACY-1035/veh), VPS36 (ProbeSet 11739960_a_at) / RFU SYPL1 (11715823_x_at) / Fold change /veh SYPL1 (11715823_x_at) / RFU IGFBP7 (11715501_s_at) / Fold change /veh IGFBP7 (11715501_s_at) / RFU REEP3 (11722064_at) / Fold change /veh REEP3 (11722064_at) / RFU IGLL1 (11728026_x_at) / Fold change /veh IGLL1 (11728026_x_at): dose or concentration left out as unconfirmed. Format: cell-based, human.

SMILES strings stand for the structures.

`Nc1ncn([C@@H]2O[C@H](CO)[C@@H](O)[C@H]2O)c(=O)n1` [azacitidine]: the “RFU VPS37D (11726825_at)” value came to 18.02 RFU.

The record behind these values is paper PMC5218480 (PLoS ONE, 2017).
